The subject of this data set is P388 mouse leukemia cells. The settings on record: 92 h. A digest of the protocol: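 P388 cells at 1 × 10^4 cells/mL (final) were exposed to library peptides (stocks diluted 250-fold in RPMI1640/10% FBS) for 92 h at 37 °C, 5% CO2. Viable cells were counted by WST-1/1-methoxy PMS (4 h), absorbance 415 nm, and expressed as cell viability (%).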

Where a SMILES comes first, the peptide text is derived from it. [ ]: non-standard residue; d: D form. The star is where a group is joined. NHCH2CH2OH = OCCN*; For = O=C*

Molecule `CC(C)C[C@@H](NC(=O)[C@H](C)NC(=O)CNC(=O)[C@@H](NC=O)C(C)C)C(=O)N[C@@H](C)C(=O)N[C@@H](C(=O)N[C@H](C(=O)N[C@@H](C(=O)N[C@@H](Cc1c[nH]c2ccccc12)C(=O)N[C@H](CC(C)C)C(=O)N[C@@H](Cc1c[nH]c2ccccc12)C(=O)N[C@H](CC(C)C)C(=O)N[C@@H](Cc1c[nH]c2ccccc12)C(=O)N[C@H](CC(C)C)C(=O)N[C@@H](Cc1c[nH]c2ccccc12)C(=O)NCCO)C(C)C)C(C)C)C(C)C` [compound 1, Gramicidin A] (For-VGA[dL]A[dV]V[dV]W[dL]W[dL]W[dL]W-NHCH2CH2OH) gave a cell viability/% of 100.0%.
